Data published in ChEMBL document CHEMBL3865848, “Macrocyclic Inhibitors of ERK2 Kinase” (ACS Med Chem Lett, 2016).
pIC50: −log10 of the molar value.

Biological target: Mitogen-activated protein kinase 1 (Homo sapiens, UniProt P28482)
Sequence (P28482 whole entry): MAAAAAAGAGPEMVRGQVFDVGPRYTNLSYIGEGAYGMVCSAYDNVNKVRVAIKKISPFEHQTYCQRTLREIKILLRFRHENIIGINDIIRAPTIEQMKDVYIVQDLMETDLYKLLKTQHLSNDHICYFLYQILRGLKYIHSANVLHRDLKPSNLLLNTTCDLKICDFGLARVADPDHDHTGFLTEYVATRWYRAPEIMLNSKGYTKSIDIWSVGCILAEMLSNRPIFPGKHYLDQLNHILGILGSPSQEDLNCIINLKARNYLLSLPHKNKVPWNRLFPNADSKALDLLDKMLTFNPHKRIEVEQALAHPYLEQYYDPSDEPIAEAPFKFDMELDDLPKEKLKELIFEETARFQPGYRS
Description: Inhibition of human activated ERK2 assessed as reduction in phosphorylation activity preincubated for 15 mins followed by addition of IMAP peptide as substrate and ATP measured after 60 mins by fluorescence polarization method

pIC50 | Structure (SMILES)
7.61 | CCn1ncc2cc3nc(c21)CCCO[C@H](O)[C@H](c1ccccc1)NC(=O)N3
6.93 | CCn1ncc2cc3nc(c21)CCCO[C@@H](O)[C@H](c1ccccc1)NC(=O)N3
